Assay results from patent US5596002A, “Method of treating chloroquine-resistant malaria with aminoquinoline derivatives” (Hoffmann-La Roche Inc., priority 1993, dated 1997).
Converted amounts (≈) assume the structure as drawn. Read-outs that look alike come from different tables or passages of the source.

Columns and labels:
[1] = system: Plasmodium falciparum, chloroquine-resistant strain K1; assay: activity against P. falciparum in vitro, strain K1; type: cell-based; conditions: Plasmodium falciparum; chloroquine-resistant strain K1; 48 h-72 h; read-out: IC50 (50% growth inhibition)
Protocol: (§1) Test method for the determination of the activity against P. falciparum in vitro
(§2) The preparations of the present invention were tested on intraerythrocytary stages of P. falciparum from asynchronous cultures according to the method of Desjardin et al. (Desjardins, R. E. et al: Quantitative assessment of antimalarial activity in vitro by a semiautomated microdilution technique. Antimicrob. Agents Chemother. 16, 710-718, (1979)).
(§3) The culture medium consisted of RPMI 1640 with the addition of 25 mM HEPES, 25 mM NaHCO3, […] neomycin and 10% human serum (A^+). Human-A^+ erythrocytes were used as the P. falciparum host cells. The parasites were maintained at 37° C. in an atmosphere of 3% O2, 4% CO2, 93% N2 and at 95% relative humidity.
(§4) In order to determine the activity, the preparations were dissolved in DMSO, pre-diluted in the culture medium to a suitable starting concentration and subsequently titrated-out into microtitre plates in the 2nd stage over 6-7 steps. After the addition of the parasite culture (0.7% parasitemia in 2.5% erythrocyte suspension), the test plates were incubated under the conditions given above for 48 h-72 h. The parasite growth in the different preparation concentrations was determined using [G-^3 H]-hypoxanthin incorporation compared to untreated control cultures on the same test plates. The 50% growth inhibition (IC50) was calculated according to logit regression analysis from the resulting dosage-activity curve.
(§5) The preparations were tested on at least one chloroquine-resistant and one chloroquine-sensitive P. falciparum strain. Additional sensitive and resistant strains were also included for further characterization.
(§6) Table 1 below contains the IC50 values measured in vitro for the growth inhibition of chloroquine-sensitive and chloroquine-resistant strains of the human pathogenic Plasmodium falciparum.

[2] = system: Plasmodium falciparum, chloroquine-resistant strain RFCR3; assay: activity against P. falciparum in vitro, strain RFCR3; type: cell-based; conditions: chloroquine-resistant strain RFCR3, 48 h-72 h, read-out: IC50 (50% growth inhibition)
Protocol: as §1, §2, §3, §4, §5, §6

[3] = system: Plasmodium falciparum, chloroquine-sensitive strain Ro7 3; assay: activity against P. falciparum in vitro, strain Ro7 3; type: cell-based; conditions: chloroquine-sensitive strain Ro7 3, 48 h-72 h, read-out: IC50 (50% growth inhibition)
Protocol: as §1, §2, §3, §4, §5, §6

[4] = system: Plasmodium falciparum, chloroquine-resistant strain ItG2 F6; assay: activity against P. falciparum in vitro, strain ItG2 F6; type: cell-based; conditions: chloroquine-resistant strain ItG2 F6, 48 h-72 h, read-out: IC50 (50% growth inhibition)
Protocol: as §1, §2, §3, §4, §5, §6

[5] = system: Plasmodium falciparum, chloroquine-resistant strain W2 Mef; assay: activity against P. falciparum in vitro, strain W2 Mef; type: cell-based; conditions: 48 h-72 h, read-out: IC50 (50% growth inhibition)
Protocol: as §1, §2, §3, §4, §5, §6

[6] = system: Plasmodium falciparum, chloroquine-sensitive strain HB3; assay: activity against P. falciparum in vitro, strain HB3; type: cell-based; conditions: chloroquine-sensitive strain HB3, 48 h-72 h, read-out: IC50 (50% growth inhibition)
Protocol: as §1, §2, §3, §4, §5, §6

[7] = system: Plasmodium falciparum, chloroquine-sensitive strain FCH5C2; assay: activity against P. falciparum in vitro, strain FCH5C2; type: cell-based; conditions: chloroquine-sensitive strain FCH5C2, 48 h-72 h, read-out: IC50 (50% growth inhibition)
Protocol: as §1, §2, §3, §4, §5, §6

[8] = system: Plasmodium falciparum, chloroquine-sensitive strain RFMEF3; assay: activity against P. falciparum in vitro, strain RFMEF3; type: cell-based; conditions: chloroquine-sensitive strain RFMEF3, 48 h-72 h, read-out: IC50 (50% growth inhibition)
Protocol: as §1, §2, §3, §4, §5, §6

[9] = system: Plasmodium falciparum, chloroquine-resistant strain W2; assay: activity against P. falciparum in vitro, strain W2; type: cell-based; conditions: chloroquine-resistant strain W2, 48 h-72 h, read-out: IC50 (50% growth inhibition)
Protocol: as §1, §2, §3, §4, §5, §6

[10] = system: Plasmodium falciparum, chloroquine-resistant strain Indo; assay: activity against P. falciparum in vitro, strain Indo; type: cell-based; conditions: chloroquine-resistant strain Indo, 48 h-72 h, read-out: IC50 (50% growth inhibition)
Protocol: as §1, §2, §3, §4, §5, §6

[11] = system: Plasmodium berghei (strain ANKA); assay: activity against Plasmodium berghei in vivo (infected mice); conditions: mice; for ED50: single administration po, dose reducing average erythrocyte infection rate by 50%, read-out: ED50 (po); for inhibition in vivo at 10 mg/kg: 48 hours after treatment (D+3)
Protocol: Test method for the determination of the activity against Plasmodium berghei in vivo
The preparations according to the present invention were tested on mice infected with malaria pathogens (Plasmodium berghei). Male albino mice (IBM:MORO(SPF), FUELLINSDORF) weighing about 25 g were used as the test animals. They were kept in climatized rooms at 21°-22° C. in groups of 5 animals per cage. They received ad libitum a diet feed with a low PABA content ("NAFAG FUTTER" No. 9009 PAB-45, PABA content 45 mg/kg) and drinking water. On the first day of the test (D0) the test animals were infected with Plasmodium berghei (strain ANKA). For this there was used heparinized blood of a donor mouse with about 30% parasitemia, which was diluted with physiological saline such that it contains 10^8 parasitized erythrocytes per ml. 0.2 ml of this suspension was injected intravenously (i.v.) into the mice to be treated and into the control mice. In untreated control animals the parasitemia normally reaches 30-40% on the third day after the infection (D+3) and the test animals die between days +5 and +7.
The substances to be tested were dissolved or suspended in distilled water or in a mixture of 7% Tween 80, 3% alcohol (96%) and water. Usually, 0.25 ml of this solution or suspension was administered once subcutaneously and perorally to groups of 5 test animals. Treatment was effected 24 hours after the infection. 10 control animals were treated in the same manner with solvent or suspension medium per test.
All substances were tested in a first test in a single dosage of 10 mg/kg. Only those substances which in this test (10 mg/kg) had shown a parasitaemia reduction of 90% were used for the titration.
48 hours after the treatment (D+3), blood smears were prepared from all animals using blood from tail veins and were stained with Giemsa. The average erythrocyte infection rate (parasitemia in %) in the control groups as well as in the groups which had been treated with the test compounds was determined by counting under a microscope. The difference in the average values of the infection rates of control group (100%) and treated groups was calculated and expressed as a percentage reduction (GI %). The ED50 or ED90 was determined mathematically by means of the JMP programme (nonlinear fit). The ED50 (ED90) in mg/kg is that dose which after single administration reduces the average erythrocyte infection rate by 50% (90%) in comparison to the control group.
Table 2 below contains data with respect to the activity measured against Plasmodium berghei in mice: GI % is the percentage reduction in the parasitemia after a single dose of 10 mg/kg of the test substance administered perorally (po) or subcutaneously (sc); ED50 and ED90 are the effective doses of the test substance administered perorally or subcutaneously.

[12] = system: Plasmodium falciparum, chloroquine-sensitive strain NF54; assay: activity against P. falciparum in vitro, strain NF54; type: cell-based; conditions: Plasmodium falciparum; chloroquine-sensitive strain NF54; 48 h-72 h; read-out: IC50 (50% growth inhibition)
Protocol: as §1, §2, §3, §4, §5, §6

[13] = system: Plasmodium falciparum, chloroquine-resistant strain 7G8; assay: activity against P. falciparum in vitro, strain 7G8; type: cell-based; conditions: chloroquine-resistant strain 7G8, 48 h-72 h, read-out: IC50 (50% growth inhibition)
Protocol: as §1, §2, §3, §4, §5, §6

[14] = single dose 10 mg/kg po, read-out: GI % at 10 mg/kg (po): percentage reduction in the parasitemia
[15] = single dose 10 mg/kg sc, read-out: GI % at 10 mg/kg (sc): percentage reduction in the parasitemia

| Structure (SMILES) | IC50 [1] [ng/mL] | IC50 [2] [ng/mL] | IC50 [3] [ng/mL] | IC50 [4] [ng/mL] | IC50 [5] [ng/mL] | IC50 [6] [ng/mL] | IC50 [7] [ng/mL] | IC50 [8] [ng/mL] | IC50 [9] [ng/mL] | IC50 [10] [ng/mL] | ED50 [11] [mg/kg] | inhibition in vivo at 10 mg/kg [11, 14] [%] | inhibition in vivo at 10 mg/kg [11, 15] [%] | IC50 [12] [ng/mL] | IC50 [13] [ng/mL] |
| --- | --- | --- | --- | --- | --- | --- | --- | --- | --- | --- | --- | --- | --- | --- | --- |
| CCN(CC)[C@@H]1CCC[C@H]1Nc1ccnc2cc(Cl)ccc12 (racemic) [Example 11, (1RS,2RS)-N1-(7-Chloro-quinolin-4-yl)-N2,N2-diethyl-cyclopentane-1,2-diamine] | 18 (≈ 0.0566 µM) | 13 (≈ 0.0409 µM) | 5 (≈ 0.0157 µM) | 6 (≈ 0.0189 µM) | 9 (≈ 0.0283 µM) | 6 (≈ 0.0189 µM) | 7 (≈ 0.022 µM) | 6 (≈ 0.0189 µM) | 15 (≈ 0.0472 µM) | 10 (≈ 0.0315 µM) | 2.2 | 99.9 | 99.9 | 5 (≈ 0.0157 µM) | 9 (≈ 0.0283 µM) |
| CN1CCCC(Nc2ccnc3cc(Cl)ccc23)C1 (racemic) [Example 19a, (RS)-(7-Chloro-quinolin-4-yl)-(1-methyl-piperidin-3-yl)-amine] | 9 (≈ 0.0326 µM) | 11 (≈ 0.0399 µM) | 5 (≈ 0.0181 µM) | 5 (≈ 0.0181 µM) | 6 (≈ 0.0218 µM) | 6 (≈ 0.0218 µM) | 7 (≈ 0.0254 µM) | 7 (≈ 0.0254 µM) | 10 (≈ 0.0363 µM) | 8 (≈ 0.029 µM) | 2.4 | 99.9 | 99.9 | 6 (≈ 0.0218 µM) | 8 (≈ 0.029 µM) |
| CN1CCC(Nc2ccnc3cc(Cl)ccc23)C1 (racemic) [Example 33a, (R,S)-(7-Chloro-quinolin-4-yl)-(1-methyl-pyrrolidin-3-yl)-amine] | 8 (≈ 0.0306 µM) | 9 (≈ 0.0344 µM) | 5 (≈ 0.0191 µM) | 5 (≈ 0.0191 µM) | 7 (≈ 0.0267 µM) | 7 (≈ 0.0267 µM) | 8 (≈ 0.0306 µM) | 7 (≈ 0.0267 µM) | 9 (≈ 0.0344 µM) | 9 (≈ 0.0344 µM) | 3.3 | 99.7 | 99.9 | 7 (≈ 0.0267 µM) | 9 (≈ 0.0344 µM) |
| Clc1ccc2c(NCCN3CCC4CCCCC43)ccnc2c1 (stereo not drawn) [Example 31] | 11 (≈ 0.0333 µM) | 14 (≈ 0.0424 µM) | 5 (≈ 0.0152 µM) | 7 (≈ 0.0212 µM) | 7 (≈ 0.0212 µM) | 5 (≈ 0.0152 µM) | 5 (≈ 0.0152 µM) | 6 (≈ 0.0182 µM) | 14 (≈ 0.0424 µM) | 7 (≈ 0.0212 µM) | – | – | – | 5 (≈ 0.0152 µM) | 9 (≈ 0.0273 µM) |
| Clc1ccc2c(NCCN3CC4CCC(CC4)C3)ccnc2c1 [Example 32] | 16 (≈ 0.0485 µM) | 16 (≈ 0.0485 µM) | 7 (≈ 0.0212 µM) | 10 (≈ 0.0303 µM) | 13 (≈ 0.0394 µM) | 9 (≈ 0.0273 µM) | 9 (≈ 0.0273 µM) | 8 (≈ 0.0243 µM) | 15 (≈ 0.0455 µM) | 15 (≈ 0.0455 µM) | – | – | – | 7 (≈ 0.0212 µM) | 15 (≈ 0.0455 µM) |
